The target in this experiment is γ-secretase (Homo sapiens (Human), UniProt P49768). In words: Cellular γ-secretase assay (Aβ42 secretion, AlphaLisa). The note with it: inhibition of Aβ42 secretion; human neuroglioma H4 cells overexpressing human APP695 Swedish double mutation; 24 hr compound incubation. Type of experiment: cell-based. The method, then: Human neuroglioma H4 cells overexpressing human APP695 with the Swedish double mutation (K595N/M596L) were plated at 30,000 cells/well/100 μl in 96-well plates in IMDM media containing 10% FCS, 0.2 mg/l Hygromycin B and incubated at 37° C., 5% CO2.
3-4 hr post plating, compounds are a diluted in media and 50 μl is added as […] concentrate to achieve the final concentration. Compound incubation is performed for 24 hr. Final doses typically range from 4 μM down to 0.0013 μM in half-log steps resulting in an eight point dose response curve. Appropriate controls using vehicle only and reference compound were applied to this assay. The final concentration of Me2SO was 0.4%.
After incubation at 37° C., 5% CO2, the supernatant was subjected to quantification of secreted Aβ42 by the means of an AlphaLisa assay kit (Human Amyloid beta 1-42 Kit: Cat # AL203C, Perkin Elmer). 20 μl of the cell culture supernatant was transferred to an assay plate. Then 10 μl of a mixture of the AlphaLisa coupled capture antibody and the biotinylated detection antibody was added and incubated for 3 hours at room temperature while softly shaking the assay plate. After a further addition of 20 μl of the Donor beads the assay plate was incubated for 30 min at room temperature and constant shaking without exposure to direct light. The assay plate was then read on a Paradigm AlphaLisa Reader using the build-in program with excitation at 680 nm and emission at […]. The measured signals were then used to calculate IC50 values for inhibition of Aβ42 secretion by nonlinear regression fit analysis using XLfit 5.3 software (IDBS).

The compound `CNc1nc(Nc2ccc(-n3cnc(C)c3)c(F)c2)nc2c1C(C)(C)CN2c1cccc(F)c1F` [Example 43, 7-(2,3-Difluorophenyl)-N2-(3-fluoro-4-(4-methyl-1H-imidazol-1-yl)phenyl)-N4,5,5-trimethyl-6,7-dihydro-5H-pyrrolo[2,3-d]pyrimidine-2,4-diamine] gave an EC50 of 5 nM. The value for `CNc1nc(Nc2ccc(-n3cc(C)nc3C)c(F)c2)nc2c1C(C)(C)CN2c1ccc(F)cc1` [Example 11, N2-(4-(2,4-Dimethyl-1H-imidazol-1-yl)-3-fluorophenyl)-7-(4-fluorophenyl)-N4,5,5-trimethyl-6,7-dihydro-5H-pyrrolo[2,3-d]pyrimidine-2,4-diamine] was 33 nM; that for `CNc1nc(Nc2cnc(-n3cnc(Cl)c3)c(OC)c2)nc2c1C(C)(C)CN2c1ccc(F)cc1F` [Example 23, N2-(6-(4-Chloro-1H-imidazol-1-yl)-5-methoxypyridin-3-yl)-7-(2,4-difluorophenyl)-N4,5,5-trimethyl-6,7-dihydro-5H-pyrrolo[2,3-d]pyrimidine-2,4-diamine] was 8 nM; that for `CNc1nc(Nc2ccc(-n3cnc(C)n3)cc2)nc2c1C(C)(C)CN2c1ccc(F)cc1` [Example 10, 7-(4-Fluorophenyl)-N4,5,5-trimethyl-N2-(4-(3-methyl-1H-1,2,4-triazol-1-yl)phenyl)-6,7-dihydro-5H-pyrrolo[2,3-d]pyrimidine-2,4-diamine] was 51 nM. In the case of `CNc1nc(Nc2ccc(-n3cnc(C)n3)c(OC)c2)nc2c1C(C)CN2c1ccc(F)cc1` (centres unmarked) [Example 39, 7-(4-Fluorophenyl)-N2-(3-methoxy-4-(3-methyl-1H-1,2,4-triazol-1-yl)phenyl)-N4,5-dimethyl-6,7-dihydro-5H-pyrrolo[2,3-d]pyrimidine-2,4-diamine] it was 6 nM; in that of `CNc1nc(Nc2ccc(-n3cnc(C)c3)c(F)c2)nc2c1[C@@H](C)CN2c1ccc(F)cc1` (single isomer, unassigned) [Example 46q, (R)— or (S)—N2-(3-Fluoro-4-(4-methyl-1H-imidazol-1-yl)phenyl)-7-(4-fluorophenyl)-N4,5-dimethyl-6,7-dihydro-5H-pyrrolo[2,3-d]pyrimidine-2,4-diamine], 7 nM. The value for `CNc1nc(Nc2cnc(-n3cnc(C)c3)c(OC)c2)nc2c1C(C)(C)CN2c1ccc(F)c(F)c1` [Example 15, 7-(3,4-Difluorophenyl)-N2-(5-methoxy-6-(4-methyl-1H-imidazol-1-yl)pyridin-3-yl)-N4,5,5-trimethyl-6,7-dihydro-5H-pyrrolo[2,3-d]pyrimidine-2,4-diamine] was 8 nM. The compound `CNc1nc(Nc2ccc(-n3cnc(C)n3)c(OC)c2)nc2c1C(C)(C)CN2c1ccc(F)cc1` [Example 1, 7-(4-Fluorophenyl)-N2-(3-methoxy-4-(3-methyl-1H-1,2,4-triazol-1-yl)phenyl)-N4,5,5-trimethyl-6,7-dihydro-5H-pyrrolo[2,3-d]pyrimidine-2,4-diamine] displayed an EC50 of 5 nM.

`CNc1nc(Nc2cnc(-n3cnc(C)c3)c(OC)c2)nc2c1CCN2c1ccc(F)cc1` [Example 33, 7-(4-Fluorophenyl)-N2-(5-methoxy-6-(4-methyl-1H-imidazol-1-yl)pyridin-3-yl)-N4-methyl-6,7-dihydro-5H-pyrrolo[2,3-d]pyrimidine-2,4-diamine] had a concentration giving a half-maximal response (EC50) of 6 nM.

Consider `CNc1nc(Nc2ccc(-n3cnc(C)n3)nc2)nc2c1C(C)(C)CN2c1ccc(F)cc1` [Example 13, 7-(4-Fluorophenyl)-N4,5,5-trimethyl-N2-(6-(3-methyl-1H-1,2,4-triazol-1-yl)pyridin-3-yl)-6,7-dihydro-5H-pyrrolo[2,3-d]pyrimidine-2,4-diamine], for which the EC50 was 23 nM.

In turn, `Cc1ncn(-c2ccc(Nc3nc(NCCO)c4c(n3)N(c3ccc(F)cc3)CC4(C)C)cc2F)n1` [Example 31, 2-((2-((3-Fluoro-4-(3-methyl-1H-1,2,4-triazol-1-yl)phenyl)amino)-7-(4-fluorophenyl)-5,5-dimethyl-6,7-dihydro-5H-pyrrolo[2,3-d]pyrimidin-4-yl)amino)ethanol] displayed an EC50 of 15 nM.

Values taken from patent publication US10669276B2, “Fused pyrimidine derivatives” (Hoffmann-La Roche Inc., priority 2016, dated 2020).
